Data taken from US8158789B2, “Arginine derivatives with NP-I antagonistic activity” (Ark Therapeutics Group Ltd., priority 2006, dated 2012).

target: T1, neuropilin-1 (NP-1) (Homo sapiens, UniProt O14786); assay: 125I-VEGF-A165 binding; conditions: assay not given; 125I-VEGF-A165 binding is the only concentration-response binding method described
T1 construct: expressed in transfected cells; host or cells: porcine aortic endothelial cells (PAE/NP-1), hygromycin B selection
Method: (§1) Porcine aortic endothelial cells expressing neuropilin-1 (PAE/NP-1) were cultured in Ham's F12 medium containing 10% fetal bovine serum (FBS) and 25 μg/ml hygromycin B. PAE cells expressing KDR (PAE/KDR) were grown in Ham's F12 medium containing 10% FBS and 250 μg/ml […] G418. Human carcinoma cell lines (DU145, A549 and ACHN) were grown in RPMI 1640 medium containing 10% FBS and L-glutamine.
Confluent cells in 24-well plates were washed twice with phosphate-buffered saline (PBS). At 4° C. various concentrations of peptides or peptidomimetics diluted in binding medium (Dulbecco's modified Eagle's medium, 25 mM HEPES pH 7.3 containing 0.1% BSA) were added, followed by addition of 0.1 nM of ^125I-VEGF-A165 (1200-1800 Ci/mmol, GE Healthcare). After 2 h of incubation at 4° C., the medium was aspirated and washed 4 times with cold PBS. The cells were lysed with 0.25 M NaOH, 0.5% SDS solution, and the bound radioactivity of the lysates was measured in a γ counter. Non-specific binding was determined in the presence of 100-fold excess unlabelled VEGF-A165.

T1 sequence (O14786 22-923): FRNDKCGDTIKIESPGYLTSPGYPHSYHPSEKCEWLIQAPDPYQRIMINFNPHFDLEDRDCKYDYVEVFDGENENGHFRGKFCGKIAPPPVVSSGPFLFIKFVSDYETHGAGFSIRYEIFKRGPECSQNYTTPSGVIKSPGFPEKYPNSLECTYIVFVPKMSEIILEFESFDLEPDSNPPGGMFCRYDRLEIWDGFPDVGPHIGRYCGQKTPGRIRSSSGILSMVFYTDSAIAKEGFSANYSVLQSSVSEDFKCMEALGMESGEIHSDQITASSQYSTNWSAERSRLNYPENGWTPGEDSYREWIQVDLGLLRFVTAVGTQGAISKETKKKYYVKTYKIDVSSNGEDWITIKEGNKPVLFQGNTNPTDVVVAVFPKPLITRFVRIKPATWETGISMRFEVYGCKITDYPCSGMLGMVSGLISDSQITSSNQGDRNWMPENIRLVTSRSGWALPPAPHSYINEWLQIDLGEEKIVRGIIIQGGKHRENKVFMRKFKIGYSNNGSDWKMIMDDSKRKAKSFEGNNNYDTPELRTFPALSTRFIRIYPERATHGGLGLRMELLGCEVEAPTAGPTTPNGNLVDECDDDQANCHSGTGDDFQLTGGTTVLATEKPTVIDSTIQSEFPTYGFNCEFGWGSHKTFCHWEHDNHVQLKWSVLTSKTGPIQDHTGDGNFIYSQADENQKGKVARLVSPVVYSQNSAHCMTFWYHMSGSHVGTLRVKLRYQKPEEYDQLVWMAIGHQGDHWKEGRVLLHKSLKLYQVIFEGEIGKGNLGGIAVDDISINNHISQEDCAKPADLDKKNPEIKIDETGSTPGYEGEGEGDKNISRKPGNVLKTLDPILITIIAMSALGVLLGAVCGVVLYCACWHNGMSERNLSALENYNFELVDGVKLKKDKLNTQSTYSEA

Row | SMILES | IC50 [µM]
1 | N=C(N)NCCC[C@H](NC(=O)c1sccc1NS(=O)(=O)c1ccc(N)cc1)C(=O)O [EG00144, (S)-2-{[3-(4-Amino-benzenesulfonylamino)-thiophene-2-carbonyl]-amino}-5-guanidino-pentanoic acid] | < 20
2 | N=C(N)NCCC[C@H](NC(=O)c1sccc1NS(=O)(=O)c1cccc(N)c1)C(=O)O [EG00174, (S)-2-{[3-(3-Amino-benzenesulfonylamino)-thiophene-2-carbonyl]-amino}-5-guanidino-pentanoic acid] | < 20
3 | CC(=O)Nc1ccc(S(=O)(=O)Nc2ccsc2C(=O)N[C@@H](CCCNC(=N)N)C(=O)O)cc1 [EG00203, (S)-2-{[3-(4-Acetylamino-benzenesulfonylamino)-thiophene-2-carbonyl]-amino}-5-guanidino-pentanoic acid] | < 20
4 | N=C(N)NCCC[C@H](NC(=O)c1sccc1NS(=O)(=O)c1ccccc1[N+](=O)[O-])C(=O)O [EG00224, (S)-5-Guanidino-2-{[3-(2-nitro-benzenesulfonylamino)-thiophene-2-carbonyl]-amino}-pentanoic acid] | < 20
5 | N=C(N)NCCC[C@H](NC(=O)c1sccc1NS(=O)(=O)c1ccccc1N)C(=O)O [EG00225, (S)-2-{[3-(2-Amino-benzenesulfonylamino)-thiophene-2-carbonyl]-amino}-5-guanidino-pentanoic acid] | < 20
6 | Cc1ccc2nsnc2c1S(=O)(=O)Nc1ccsc1C(=O)N[C@@H](CCCNC(=N)N)C(=O)O [EG00264, (S)-2-{[3-(5-Methyl-benzo[1,2,5]thiadiazole-5-methyl-4-sulfonylamino)-thiophene-2-carbonyl]-amino}-5-guanidino-pentanoic acid] | < 20
7 | Cc1nc(S(=O)(=O)Nc2ccsc2C(=O)N[C@@H](CCCNC(=N)N)C(=O)O)cn1C [EG00265, (S)-2-{[3-(1,2-Dimethyl-1H-imidazole-4-sulfonylamino)-thiophene-2-carbonyl]-amino}-5-guanidino-pentanoic acid] | < 20
8 | N=C(N)NCCC[C@H](NC(=O)c1sccc1NS(=O)(=O)c1cccc(C#CCN)c1)C(=O)O [EG00274, (S)-2-({3-[3-(3-Amino-prop-1-ynyl)-benzenesulfonylamino]-thiophene-2-carbonyl}-amino)-5-guanidino-pentanoic acid] | < 20
9 | Cc1nn(C)c(Cl)c1CNc1cccc(S(=O)(=O)Nc2ccsc2C(=O)N[C@@H](CCCNC(=N)N)C(=O)O)c1 [EG00280, (S)-2-[(3-{3-[(5-Chloro-1,3-dimethyl-1H-pyrazol-4-ylmethyl)-amino]-benzenesulfonylamino}-thiophene-2-carbonyl)-amino]-5-guanidino-pentanoic acid] | < 20
10 | N=C(N)NCCC[C@H](NC(=O)c1sccc1NS(=O)(=O)c1cccc(NCc2ccccn2)c1)C(=O)O [EG00283, (S)-5-Guanidino-2-[(3-{3-[(pyridin-2-ylmethyl)-amino]-benzenesulfonylamino}-thiophene-2-carbonyl)-amino]-pentanoic acid] | < 20
11 | N=C(N)NC(=O)CC[C@H](NC(=O)c1sccc1NS(=O)(=O)c1ccccc1[N+](=O)[O-])C(=O)O [EG00285, (S)-5-Guanidino-2-{[3-(2-nitro-benzenesulfonylamino)-thiophene-2-carbonyl]-amino}-5-oxo-pentanoic acid] | < 20
12 | N=C(N)NCCC[C@H](NC(=O)c1sccc1NS(=O)(=O)c1cc2ccccc2o1)C(=O)O [EG00287, (S)-2-{[3-(Benzofuran-2-sulfonylamino)-thiophene-2-carbonyl]-amino}-5-guanidino-pentanoic acid] | < 20
13 | N=C(N)NCCC[C@H](NC(=O)c1sccc1NS(=O)(=O)c1cccc2nonc12)C(=O)O [EG00288, (S)-2-{[3-(Benzo[1,2,5]oxadiazole-4-sulfonylamino)-thiophene-2-carbonyl]-amino}-5-guanidino-pentanoic acid] | < 20
14 | N=C(N)NCCC[C@H](NC(=O)c1sccc1NS(=O)(=O)c1cc2ccccc2s1)C(=O)O [EG00291, (S)-2-{[3-(Benzo[b]thiophene-2-sulfonylamino)-thiophene-2-carbonyl]-amino}-5-guanidino-pentanoic acid] | < 20
15 | N=C(N)NCCC[C@H](NC(=O)c1sccc1NS(=O)(=O)c1cc(Br)cc2c1OCC2)C(=O)O [EG00299, (S)-2-{[3-(5-Bromo-2,3-dihydro-benzofuran-7-sulfonylamino)-thiophene-2-carbonyl]-amino}-5-guanidino-pentanoic acid] | < 20
16 | Cc1cc(CNc2cccc(S(=O)(=O)Nc3ccsc3C(=O)N[C@@H](CCCNC(=N)N)C(=O)O)c2)n(C)n1 [EG00316, (S)-2-[(3-{3-[(2,5-Dimethyl-2H-pyrazol-3-ylmethyl)-amino]-benzenesulfonyl-amino}-thiophene-2-carbonyl)-amino]-5-guanidino-pentanoic acid] | < 20
17 | Cc1noc(C)c1CNc1cccc(S(=O)(=O)Nc2ccsc2C(=O)N[C@@H](CCCNC(=N)N)C(=O)O)c1 [EG00317, (S)-2-[(3-{3-[(3,5-Dimethyl-isoxazol-4-ylmethyl)-amino]-benzenesulfonyl-amino}-thiophene-2-carbonyl)-amino]-5-guanidino-pentanoic acid] | < 20
18 | Cc1nn(-c2ccccc2)c(Cl)c1CNc1cccc(S(=O)(=O)Nc2ccsc2C(=O)N[C@@H](CCCNC(=N)N)C(=O)O)c1 [EG00318, (S)-2-[(3-{3-[(5-Chloro-3-methyl-1-phenyl-1H-pyrazol-4-ylmethyl)-amino]-benzenesulfonylamino]-thiophene-2-carbonyl)-amino]-5-guanidino-pentanoic acid] | < 20
19 | Cn1nc(CNc2cccc(S(=O)(=O)Nc3ccsc3C(=O)N[C@@H](CCCNC(=N)N)C(=O)O)c2)c2ccccc21 [EG00319, (S)-5-Guanidino-2-[(3-{3-[(1-methyl-1H-indazol-3-ylmethyl)-amino]-benzenesulfonylamino}-thiophene-2-carbonyl)-amino]-pentanoic acid] | < 20
20 | N=C(N)NCCC[C@H](NC(=O)c1sccc1NS(=O)(=O)c1cccc(CCc2cccnc2)c1)C(=O)O [EG00323, (S)-5-Guanidino-2-({3-[3-(2-pyridin-3-yl-ethyl)-benzenesulfonylamino]-thiophene-2-carbonyl}-amino)-pentanoic acid] | < 20
21 | Cc1nc(CNc2cccc(S(=O)(=O)Nc3ccsc3C(=O)N[C@@H](CCCNC(=N)N)C(=O)O)c2)c(C)o1 [EG00332, (S)-2-[(3-{3-[(2,5-Dimethyl-oxazol-4-ylmethyl)-amino]-benzenesulfonylamino}-thiophene-2-carbonyl)-amino]-5-guanidino-pentanoic acid] | < 20
22 | Cc1noc(C)c1-c1cccc(S(=O)(=O)Nc2ccsc2C(=O)N[C@@H](CCCNC(=N)N)C(=O)O)c1 [EG00350, (S)-2-({3-[3-(3,5-Dimethyl-isoxazol-4-yl)-benzenesulfonylamino]-thiophene-2-carbonyl}-amino)-5-guanidino-pentanoic acid] | < 20
23 | N=C(N)NCCC[C@H](NC(=O)c1sccc1NS(=O)(=O)c1cccc(CCCN)c1)C(=O)O [EG00369, (S)-2-({3-[3-(3-Amino-propyl)-benzenesulfonylamino]-thiophene-2-carbonyl}-amino)-5-guanidino-pentanoic acid] | < 20
24 | Cc1noc(C)c1-c1cc2c(c(S(=O)(=O)Nc3ccsc3C(=O)N[C@@H](CCCNC(=N)N)C(=O)O)c1)OCC2 [EG00428, (S)-2-({3-[5-(3,5-Dimethyl-isoxazol-4-yl)-2,3-dihydro-benzofuran-7-sulfonyl-amino]-thiophene-2-carbonyl}-amino)-5-guanidino-pentanoic acid] | < 20
25 | CN1CCOc2cc(-c3cc4c(c(S(=O)(=O)Nc5ccsc5C(=O)N[C@@H](CCCNC(=N)N)C(=O)O)c3)OCC4)cnc21 [EG00475, (S)-5-Guanidino-2-({3-[5-(4-methyl-3,4-dihydro-2H-pyrido[3,2-b][1,4]oxazin-7-yl)-2,3-dihydro-benzofuran-7-sulfonylamino]-thiophene-2-carbonyl}-amino)-pentanoic acid] | < 20

test system: DU145 cancer cells; assay: Cell-matrix adhesion (Innocyte ECM cell adhesion assay); assay type: cell-based, Human; conditions: concentrations from 10-100 μM
Method: as §1
Cell adhesion to extracellular matrix proteins (basement membrane protein complex, laminin I, collagen IV, fibronectin or vitronectin) was measured by the Innocyte ECM cell adhesion assay (Calbiochem). Cells were detached with a non-enzyme cell dissociation solution (Sigma), washed and resuspended in RPMI 1640 medium. Cells with or without peptidomimetic treatment were seeded at 3×10^4 cells per matrix-coated well of 96-well plates. After 1.5 h incubation, cells were washed with PBS. The attached cells were labelled with the green fluorescent dye calcein-AM and measured using a fluorescence plate reader at an excitation wavelength of 485 nm and an emission wavelength of 520 nm.

Row | SMILES | inhibiting the adhesion of DU145 cancer cells to extracellular matrix proteins
26 | N=C(N)NCCC[C@H](NC(=O)c1sccc1NS(=O)(=O)c1ccc(N)cc1)C(=O)O [EG00144, (S)-2-{[3-(4-Amino-benzenesulfonylamino)-thiophene-2-carbonyl]-amino}-5-guanidino-pentanoic acid] | effective

test system: A549 cells; assay: Cell migration (chemotaxis transwell); assay type: cell-based, Human; conditions: concentrations from 10-100 μM
Method: as §1
(§2) Cell migration was measured in chemotaxis 24-transwell plates with collagen 1-coated inserts. The various concentrations of serum in RPMI 1640/0.1% BSA were placed in the bottom wells of the plates, while top inserts incorporating PET (polyethylene terephthalate) track-etched membranes with 8 micron pores (Becton Dickinson Biosciences) were placed over the bottom wells. Cells were trypsinised, washed and resuspended in RPMI 1640/0.1% BSA. 1.5×10^6 cells with or without peptide or peptidomimetic treatment as indicated were loaded into each top inserts, and the chemotaxis trans-well plates were incubated at 37° C. for 4 h. After the incubation, non-migrated cells on the top side of the trans-well membranes were removed, and migrated cells on the under side of the trans-well membranes were stained with the REASTAIN Quick-Diff kit (REAGENA). The stained cells from each well were counted in 4 fields at ×100 magnification using an eyepiece indexed graticule (100 grids).

Row | SMILES | migration of A549 cells
27 | N=C(N)NCCC[C@H](NC(=O)c1sccc1NS(=O)(=O)c1ccc(N)cc1)C(=O)O [EG00144, (S)-2-{[3-(4-Amino-benzenesulfonylamino)-thiophene-2-carbonyl]-amino}-5-guanidino-pentanoic acid] | decreased migration

test system: ACHN cells; assay: Cell migration (chemotaxis transwell); assay type: cell-based, Human; conditions: concentrations from 10-100 μM
Method: as §1, §2

Row | SMILES | migration of ACHN cells
28 | N=C(N)NCCC[C@H](NC(=O)c1sccc1NS(=O)(=O)c1ccc(N)cc1)C(=O)O [EG00144, (S)-2-{[3-(4-Amino-benzenesulfonylamino)-thiophene-2-carbonyl]-amino}-5-guanidino-pentanoic acid] | decreased migration
